Results as given in paper PMC10445283, “Boronate-Based Oxidant-Responsive Derivatives of Acetaminophen as Proinhibitors of Myeloperoxidase” (Chemical Research in Toxicology, 2023).
Several values for one entry are separate records, joined by “and”; a condition that tells them apart may be missing. Equal values may be shown once. Entries after “also recorded” stand apart in the source; their conditions may differ. Read-outs that look alike come from different tables or passages of the source. Blank lines part the entries; values can stand above or below the molecule they belong to.

Assays:
[1] = target: T1, MPO from human neutrophils (Homo sapiens, UniProt P05164); assay: Taurine N-chloramine/TMB assay of MPO-derived HOCl; type: biochemical; conditions: for IC50: read-out: IC50, inhibition of MPO chlorinating activity
T1 construct: MPO from human neutrophils was obtained from Athens Research and Technology (Athens, GA); purchased Athens Research and Technology (Athens, GA); host or cells: human neutrophils (natural source)
T1 sequence (P05164 279-745 limits assumed): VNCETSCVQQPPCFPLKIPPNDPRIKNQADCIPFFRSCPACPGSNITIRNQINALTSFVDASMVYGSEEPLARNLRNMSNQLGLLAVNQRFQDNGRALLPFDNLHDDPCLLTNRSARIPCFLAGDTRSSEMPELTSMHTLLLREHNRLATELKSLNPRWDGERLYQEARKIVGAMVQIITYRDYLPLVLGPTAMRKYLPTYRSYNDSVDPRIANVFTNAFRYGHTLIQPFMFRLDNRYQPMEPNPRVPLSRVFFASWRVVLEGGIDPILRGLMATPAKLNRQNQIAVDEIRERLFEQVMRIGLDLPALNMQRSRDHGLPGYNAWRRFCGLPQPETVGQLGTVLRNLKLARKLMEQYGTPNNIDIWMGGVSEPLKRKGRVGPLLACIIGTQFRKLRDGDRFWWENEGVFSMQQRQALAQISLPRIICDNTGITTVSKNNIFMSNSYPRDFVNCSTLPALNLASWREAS
T1 sequence (P05164 165-273 limits assumed): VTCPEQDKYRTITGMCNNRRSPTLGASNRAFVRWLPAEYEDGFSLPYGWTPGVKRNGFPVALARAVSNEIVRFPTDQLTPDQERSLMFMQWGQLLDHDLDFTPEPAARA
Experimental: (§1) The performance of AM and its derivatives in inhibition of the MPO chlorinating activity was evaluated using dose–response curves. The half maximal inhibitory concentration (IC50) values were determined on the basis of three independent measurements using a dose–response fitting mode implemented in OriginPro 2020 (OriginLab Corp.) software. […] MPO stock solution was prepared according to the supplier’s instruction by dissolving lyophilized powder of MPO in distilled water and was stored at 6 °C. The desired MPO activity was obtained by dilution of the stock solution with phosphate buffer (50 mM, pH 7.4) containing sodium chloride (0.1 M).
The diluted MPO solution was pipetted directly into the 96-well plate (1.45 μL). […] The prepared 96-well plate was incubated for 5 min, and the reaction was started by the addition of 110 μL per well of 20 μM H2O2 solution in water. The plate was incubated for another 5 min, and then 200 μL of the incubation mixtures was transferred to another 96-well plate prefilled with catalase solution (10 kU/mL, 2 μL per well) to remove unreacted hydrogen peroxide and to stop the reaction. Next, 50 μL per well of developing reagent composed of 2 mM TMB, 100 μM potassium iodide, and 0.32 M acetate buffer (pH 5.4) was added, and absorbance at 645 nm was measured by a Varioscan LUX (Thermo Fisher Scientific) plate reader controlled by SkanIt 6.0.2 software. The typical chlorinating activity of MPO during the inhibition experiments was 5 nM/s HOCl as determined using a CBA oxidation-based assay.[18] The concentration of H2O2 in the stock solution was determined spectrophotometrically at 240 nm using the molar extinction coefficient ε = 43.6 M^–1 cm^–1. The chemical structures of the TMB and CBA probes, along with their oxidation products, are presented in Supplementary Figure S5.
The MPO inhibitory activity of AM was compared with its two synthesized boronated derivatives (Figure 1). […] The resulting N-chloramine is then quantified in a reaction with N,N,N′,N′-tetramethylbenzidine catalyzed by potassium iodide.[20] […]

[2] = set-up: method as in PMID 3395354; conditions: pH 7; cited from earlier work
[3] = test system: COX-2; conditions: reference not given; read-out: IC50 for the inhibition of COX-2; cited from earlier work
[4] = target: T2, MPO (Homo sapiens, UniProt P05164); assay: MPO-dependent HOCl generation (summary values); type: biochemical
T2 construct: MPO from human neutrophils was obtained from Athens Research and Technology (Athens, GA); purchased Athens Research and Technology (Athens, GA); host or cells: human neutrophils (natural source)
T2 sequence (P05164 279-745 limits assumed): as the sequence (P05164 279-745 limits assumed) above
T2 sequence (P05164 165-273 limits assumed): as the sequence (P05164 165-273 limits assumed) above
Experimental: as §1

[5] = target: T1, MPO from human neutrophils; assay: NBD-TM oxidation assay of MPO-derived HOCl; type: biochemical; conditions: for IC50: NBD-TM 20 μM, MPO 0.1 nM, H2O2 10 μM, NaCl 0.1 M, pH 7.4, 5 min, read-out: IC50, inhibition of MPO chlorinating activity
Experimental: as §1
MPO-derived HOCl was monitored by an NBD-TM probe according to the previously described procedure (Supplementary Figure S5).[18] Briefly, to 96-well plates containing MPO, NBD-TM (40 μM), the studied compounds, phosphate buffer (100 mM, pH 7.4), and sodium chloride (0.2 M), 20 μM solution of hydrogen peroxide was added to start the reaction (mixing ratio 1:1 v/v). Then, the changes of fluorescence intensity were measured by Varioscan LUX using λex = 475 nm, λem = 575 nm, and slits width of 12 nm. This enabled the direct monitoring of fluorescent NBD-TSO formation.
The MPO inhibitory activity of AM was compared with its two synthesized boronated derivatives (Figure 1). […] In the taurine-based assay, HOCl oxidizes taurine to taurine N-chloramine. The resulting N-chloramine is then quantified in a reaction with N,N,N′,N′-tetramethylbenzidine catalyzed by potassium iodide.[20] In the case of the NBD-TM probe, in the presence of HOCl, the sulfur atom in the probe is oxidized to sulfoxide, producing a highly fluorescent NBD-TSO.[18]

[6] = Spontaneous conversion of AMB-OH into acetaminophen (UPLC); type: physicochemical
Experimental: Ultra-performance liquid chromatograph (UPLC) Acquity (Waters Ltd.) equipped with a photodiode array detector and combined with an LCT Premier XE (Waters Ltd.) mass spectrometer was used for the chromatographic separation and identification of AMBB and AAPBA oxidation products. Separation was performed on a reversed-phase C18 UPLC column (Waters Acquity UPLC BEH C18 […], 50 × 2.1 mm) equilibrated with a water/acetonitrile (CH3CN) (90/10 v/v) mobile phase containing 0.1% (v/v) trifluoroacetic acid (TFA). The analytes were separated at a flow rate of 0.3 mL/min. During the first 0.5 min of analysis, the composition of the mobile phase remained unchanged. […] The injection volume was 2 μL, the sample temperature was 20 °C, and the column temperature was 40 °C. The electrospray source was operated at positive ion mode using the following parameters: capillary voltage 2.8 kV, sample cone voltage 60 V, desolvation temp. 350 °C, source temp. 100 °C, desolvation gas flow 800 L/h, and cone gas flow 50 L/h. The MCP detector voltage was 2.5 kV.
Figure 4 Kinetics of the conversion of AMB-OH into acetaminophen (AM). AMB-OH was produced in situ by mixing 50 μM AMBB with 50 μM NaOCl in 20 mM phosphate buffer, pH 7.4. (A) UPLC peak areas of AMB-OH (open squares) and AM (open circles) as a function of incubation time. UPLC peak areas were integrated for chromatograms extracted at 250 ± 1.2 nm. (B) Scheme of the quinone methide moiety elimination by AMB-OH to form AM. TEXT PRINTED IN THE PICTURE: (A) AM: ^1k = (1.85 ± 0.01) × 10^-4 s^-1 | (A) AMB-OH: ^1k = (2.00 ± 0.01) × 10^-4 s^-1

[7] = cited from earlier work
[8] = set-up: method as in PMID 34884784; conditions: previously reported; cited from earlier work
[9] = Solubility in MPO assay mixture; type: physicochemical; conditions: above 0.3 mM in assay mixture, pH 7.4, 3% methanol
Experimental: For AMBB, in the range of 0 nM to 0.3 mM, no inhibition of HOCl production was observed (Figure 1A).

[10] = Pseudo-first-order kinetics of reaction with H2O2 (UPLC); type: physicochemical; conditions: pH 7.4, 20 mM phosphate buffer, 0.2–1 mM H2O2
Experimental: The rate constants for H2O2 and the studied boronic acids were determined directly under the pseudo-first-order conditions. Typically, the incubation mixtures contained boronic acid (20 μM), phosphate buffer (20 mM), CH3CN (2.5% v/v), and at least 10-fold excess of H2O2 (0.2–1 mM). The changes of analyte concentrations were followed by UPLC using a photodiode array detector (λmax = 250 ± 1.2 nm). On the basis of kinetic traces of AMBB and AAPBA decay (Supplementary Figure S6), the pseudo-first-order rate constants were determined. The second-order rate constants were calculated using the linear relationship between the determined pseudo-first-order rate constants and H2O2 concentrations.

[11] = Competition kinetics with FLBA: reaction with HOCl; type: physicochemical; conditions: pH 7.4, 50 mM phosphate buffer
Experimental: (§2) The rate constants of the reactions of AMBB and AAPBA with ONOO^– and HOCl were determined by a competition kinetic method using FLBA as a reference compound.[18],[21],[22] In this approach, two pseudo-first-order reactions were assumed, a reaction between FLBA and the selected oxidant, ONOO^– or HOCl (eq 1), and between the investigated acetaminophen derivative (R-B(OH)2) and the oxidant (eq 2). Typically, the set of samples containing FLBA (20 μM), phosphate buffer (50 mM, pH 7.4), and AMBB or AAPBA (0–160 μM) in Eppendorf tubes was prepared. A concentrated basic solution of HOCl or ONOO^– was then added to the samples and rapidly mixed. The resulting concentration of an appropriate oxidant was 1.5 μM. Next, the samples were transferred to a 96-well plate, and the fluorescence intensity of the formed fluorescein was measured. The fluorescence intensity was followed with a Varioscan LUX plate reader using λex = 490 nm, λem = 515 nm, and slit widths of 12 nm.

[12] = Competition kinetics with FLBA: reaction with ONOO–; type: physicochemical; conditions: pH 7.4, 50 mM phosphate buffer
Experimental: as §2

[13] = abstract summary, read-out: IC50 toward MPO-dependent HOCl generation

Compound: O=C(O)c1ccccc1-c1c2ccc(=O)cc-2oc2cc(B(O)O)ccc12 [FLBA, reference compound]
rate constant of reaction with HOCl ([7]; previously reported): 1.11 × 10^4 M^–1 s^–1
rate constant of reaction with ONOO– [8]: 1.0 × 10^6 M^–1 s^–1

Compound: O=c1[nH]c(=O)c2[nH]c(=O)[nH]c2[nH]1 [uric acid]
bimolecular rate constant of reaction with HOCl ([7]; pH 7): 3 × 10^5 M^–1 s^–1

Compound: CC(=O)Nc1ccc(B(O)O)cc1 [AAPBA, 4-Acetamidophenylboronic Acid]
IC50 [1]: 420 ± 60 µM
second-order rate constant of reaction with H2O2 [10]: 1.9 ± 0.1 M^–1 s^–1
second-order rate constant of reaction with HOCl [11]: (1.72 ± 0.01) × 10^4 M^–1 s^–1
second-order rate constant of reaction with ONOO– [12]: (1.1 ± 0.3) × 10^6 M^–1 s^–1
IC50 [5]: 394 ± 2 µM

Second part, led by results:

IC50 [1]: 153 ± 9 µM
IC50 [4, 13]: 140 µM
IC50 ([4]; rounded value in discussion, read-out: IC50 for the inhibition of MPO): 150 µM
IC50 [5]: 135 ± 9 µM
Compound: CC(=O)Nc1ccc(O)cc1 [Acetaminophen, N-(4-hydroxyphenyl)acetamide]
electrode potential E°′ (AM-OH/AM-O·,H+ redox couple) [2]: 0.71 ± 0.01 V
first-order rate constant of AM build-up from AMB-OH ([6]; pH 7.4, 20 mM phosphate buffer): (1.85 ± 0.01) × 10^-4 s^-1

time to complete conversion into AM ([6]; pH 7.4, room temperature): 5 h
half-life ([6]; phosphate buffer, pH 7.4, pH 7.4, room temperature, read-out: half-life time (converted)): 1 h
Compound: CC(=O)Nc1ccc(OCc2ccc(O)cc2)cc1 [AMB-OH, N-[4-(4-hydroxybenzyloxy)phenyl]acetamide]

solubility [9]: limited solubility and precipitation
IC50 [4, 13]: > 300 µM
Compound: CC(=O)Nc1ccc(OCc2ccc(B(O)O)cc2)cc1 [AMBB, (4-((4-Acetamidophenoxy)methyl)phenyl)-boronic Acid]
inhibition of HOCl production ([1]; in the presence of taurine, 0 nM to 0.3 mM compound): no inhibition; also recorded: not show any inhibitory activity; also recorded: failed to inhibit the chlorination cycle
second-order rate constant of reaction with H2O2 [10]: 1.67 M^–1 s^–1 and 1.67 ± 0.02 M^–1 s^–1
inhibitory effect on HOCl production activity of MPO ([5]; no taurine, effect seen in the 0.1–0.3 mM range): shows the inhibitory effects; also recorded: exhibits inhibitory activity
